How the values were obtained:
apyrase = assay: Screen for apyrase inhibitors (Method 1, in vitro phosphate-release absorbance assay); type: biochemical; settings: inhibitor conc at 1 mM stock, 1 hr room temperature, absorbance 630 nm; rounded average of two assay results
Method in brief: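 Phosphate-release colorimetric assay (Windsor method) in 60 mM Hepes, 3 mM MgCl2, 3 mM CaCl2, 3 mM ATP, pH 6.5, with compound or DMSO control added. Released phosphate developed with ammonium molybdate and ascorbic acid/TCA, then stopped with citrate/acetic acid.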

[1] = test system: plant pathogenic fungi (Zymoseptoria tritici strains, Microdochium nivale); assay: In vitro combination assay (Method 2), overall comparison with Roux Compound 13; type: cell-based; settings: azoxystrobin, fluxapyroxad, desthio prothioconazole; three fungal strains
Description: Method 2: In Vitro Assessment of Combination Activity
Selected compounds were assessed in combination with fungicides against a range of commercially important plant pathogenic fungi.
The test was conducted as follows. A fungicide was applied to a fungal plant pathogen at a rate slightly below that at which it gave any control, in combination with a suitable dose of the test compound. The test compound was recorded as active if control of the pathogen was observed.
In more detail, the test was conducted as follows. For each combination of fungicide, pathogen and test compound, the following wells were used. Well 1 contained a fungal pathogen growing on agar, and a fungicide at a rate just below that at which it gave any control of the pathogen. Well 2 was the same as Well 1, except that the test compound was also added at Rate 1. Well 3 was the same as Well 2, except that the test compound was added at Rate 2, where Rate 2 was higher than Rate 1. Finally, as a benchmark, Well 4 was the same as Well 1, except that it contained the fungicide at a higher rate, at which it gave partial control of the pathogen. Each of the Wells 1 to 4 were run in duplicate, giving a total of 8 wells for each combination of fungicide, pathogen and test compound. For each well, after a suitable period of incubation, a visual assessment of the % control of the pathogen by the fungicide was made.
The following fungicides were used in this assay: azoxystrobin, fluxapyroxad, and desthio prothioconazole. The following fungal pathogens were used in this assay: First, a strain of Zymoseptoria tritici with a reduced susceptibility to strobilurin fungicides; second a strain of Zymoseptoria tritici with a reduced susceptibility to SDHI fungicides (i.e., those that inhibit succinate dehydrogenase); and third, Microdochium nivale.

[2] = test system: Asian Soya Rust (Phakopsora pachyrhizi) on soybean; assay: Greenhouse crop test (Method 3), Asian Soya Rust on soybean; type: in vivo; settings: Proline 0.15 L/ha
Description: (§1) Method 3: Greenhouse Crop Tests
(§2) In this method, exemplary compounds were evaluated for their ability to control Zymoseptoria tritici on wheat, Botrytis cinerea on tomatoes, Asian Soya Rust (Phakopsora pachyrhizi) on soybean, and Brown Rust (Puccinia recondita) on wheat, in a controlled greenhouse environment in combination with one of four fungicides, Amistar, Imtrex, Proline or Balaya. In these studies, soybean cultivar Siverka, tomato (Money maker) and wheat plants (JB Diego) were used. […] Each plant was evaluated once the disease symptoms were fully expressed between seven to twenty days (depending on the pathogen) for % control of the disease. […] Also, each commercial fungicide was tested on its own as a part of each treatment, this being benchmark against which the experimental compounds were evaluated. […]

[3] = test system: Zymoseptoria tritici on wheat; assay: Greenhouse crop test (Method 3), Zymoseptoria tritici on wheat; type: in vivo; settings: Imtrex 0.02 L/ha
Description: as §1
In this method, exemplary compounds were evaluated for their ability to control Zymoseptoria tritici on wheat, Botrytis cinerea on tomatoes, Asian Soya Rust (Phakopsora pachyrhizi) on soybean, and Brown Rust (Puccinia recondita) on wheat, in a controlled greenhouse environment in combination with one of four fungicides, Amistar, Imtrex, Proline or Balaya. In these studies, soybean cultivar Siverka, tomato (Money maker) and wheat plants (JB Diego) were used. Seeds were sown in 9 cm diameter pots to a depth of 1 to 2 cm using Petersfield potting compost (75% medium grade peat, 12% screened sterilized loam, 3% medium grade vermiculite, 10% grit (5 mm screened, lime free), 1.5 kg PG mix per m3, lime to pH5.5-6.0 and wetting agent (Vitax Ultrawet 200 ml per m3) and germinated/grown at 23 C under a 16 h day/8 h night light regime. Plants were treated two to three weeks after sowing when they were at the BBCH 11 growth stage (first pair of true leaves (unifoliate) unfolded. A track sprayer was used to treat the plants with the mixture of commercial fungicide and test compound using a water volume of 200 L/ha. Plants were inoculated with the appropriate fungi (pathogen) 24 hours after treatment. Fungal pathogens used were Botrytis cinerea (Grey mold on tomato plants), Zymoseptoria tritici (Septoria leaf blotch on wheat plants), Puccinia triticina (Brown rust on wheat plants) and Phakopsora pachyrhizi (Asian soy rust on soybean plants). Four replicates were used for each combination of fungicide, pathogen and test compound. Each plant was evaluated once the disease symptoms were fully expressed between seven to twenty days (depending on the pathogen) for % control of the disease. Appropriate controls were used for all experiments, including an ‘inoculation check’ wherein plants were inoculated with their specific pathogen to assess disease levels. Also, each commercial fungicide was tested on its own as a part of each treatment, this being benchmark against which the experimental compounds were evaluated. […] That is, the present compounds, although not fungicidal by themselves, enhance the activity of fungicides, thus the enhancer compounds work synergistically in combination with fungicides to control disease.
In these studies the fungicide was applied at the following rates

[4] = test system: Botrytis cinerea on tomatoes; assay: Greenhouse crop test (Method 3), Botrytis cinerea on tomatoes; type: in vivo; settings: Botrytis cinerea on tomato, Imtrex 0.005 L/ha
Description: as §1
In this method, exemplary compounds were evaluated for their ability to control Zymoseptoria tritici on wheat, Botrytis cinerea on tomatoes, Asian Soya Rust (Phakopsora pachyrhizi) on soybean, and Brown Rust (Puccinia recondita) on wheat, in a controlled greenhouse environment in combination with one of four fungicides, Amistar, Imtrex, Proline or Balaya. In these studies, soybean cultivar Siverka, tomato (Money maker) and wheat plants (JB Diego) were used. Seeds were sown in 9 cm diameter pots to a depth of 1 to 2 cm using Petersfield potting compost (75% medium grade peat, 12% screened sterilized loam, 3% medium grade vermiculite, 10% grit (5 mm screened, lime free), 1.5 kg PG mix per m3, lime to pH5.5-6.0 and wetting agent (Vitax Ultrawet 200 ml per m3) and germinated/grown at 23 C under a 16 h day/8 h night light regime. Plants were treated two to three weeks after sowing when they were at the BBCH 11 growth stage (first pair of true leaves (unifoliate) unfolded. A track sprayer was used to treat the plants with the mixture of commercial fungicide and test compound using a water volume of 200 L/ha. Plants were inoculated with the appropriate fungi (pathogen) 24 hours after treatment. Fungal pathogens used were Botrytis cinerea (Grey mold on tomato plants), Zymoseptoria tritici (Septoria leaf blotch on wheat plants), Puccinia triticina (Brown rust on wheat plants) and Phakopsora pachyrhizi (Asian soy rust on soybean plants). Four replicates were used for each combination of fungicide, pathogen and test compound. Each plant was evaluated once the disease symptoms were fully expressed between seven to twenty days (depending on the pathogen) for % control of the disease. Appropriate controls were used for all experiments, including an ‘inoculation check’ wherein plants were inoculated with their specific pathogen to assess disease levels. Also, each commercial fungicide was tested on its own as a part of each treatment, this being benchmark against which the experimental compounds were evaluated. […]

[5] = test system: Brown Rust (Puccinia recondita) on wheat; assay: Greenhouse crop test (Method 3), Brown Rust on wheat; type: in vivo; settings: Imtrex 0.45 L/ha
Description: as §1, §2

Structure (SMILES) | % Inhibition of Apyrase (apyrase) | enhancer activity in the combination assay compared with Roux Compound 13 [1] | enhancement of the activity of Proline [2] | enhancement of Imtrex over Imtrex alone [3] | enhancement in combination with Imtrex over Imtrex alone [4] | additional Brown Rust control benefit in combination with Imtrex over Imtrex alone [5]
O=C1CSc2ccc(C(=O)Nc3cccc(S(=O)(=O)Nc4ccc(Br)cc4)c3)cc2N1 [I-198, N-(3-(N-(4-bromophenyl)sulfamoyl)phenyl)-3-oxo-3,4-dihydro-2H-benzo[b][1,4]thiazine-6-carboxamide] | 79% | superior enhancer activity than Roux Compound 13 | over 90% | about 30% |  | 
O=C(Nc1ccc(Br)cc1)c1cccc(S(=O)(=O)Nc2ccc(F)cc2)c1 [I-222, N-(4-bromophenyl)-3-(N-(4-fluorophenyl)sulfamoyl)benzamide] | 71% | superior enhancer activity than Roux Compound 13 | greater than 60% |  |  | 
Cc1ccc(C(=O)Nc2ccccc2S(=O)(=O)Nc2ccccc2)cc1F [I-236, 3-fluoro-4-methyl-N-(2-(N-phenylsulfamoyl)phenyl)benzamide] | 30% | superior enhancer activity than Roux Compound 13 |  |  | about 30% | 
Cc1ccc(NC(=O)c2cccc(S(=O)(=O)Nc3cccc(Cl)c3)c2)nc1 [I-595, 3-(N-(3-chlorophenyl)sulfamoyl)-N-(5-methylpyridin-2-yl)benzamide] | 36% |  |  |  |  | greater than 40%
O=C(Nc1ccccc1S(=O)(=O)N1CCCC1)c1cccc(C(F)(F)F)c1 [I-826, N-(2-(pyrrolidin-1-ylsulfonyl)phenyl)-3-(trifluoromethyl)benzamide] | 40% |  |  |  |  | greater than 50%

Source: patent US12685312B2, “Sulfonamide apyrase inhibitors” (Texas Crop Science, Inc., priority 2022, dated 2026)
